Values joined by “and” are separate entries in the source; they are usually repeats but may differ in a detail not shown here. Equal values may be shown once. Read-outs that look alike come from different tables or passages of the source. Marks after values point to notes of the source that are not given here.
Assays:
patients with ALS [1] = details: for treatment failures (6-point or greater drop in ALSFRS-R total score): baseline to 12 weeks; for treatment failures (reduction in VC of 20% or greater): baseline to Week 12
patients with ALS [2] = experiment: Part 2: 4-week single-blind placebo washout period (withdrawal effects)
[3] = 50 mg during Part 1, placebo washout period
[4] = 150 mg during Part 1, placebo washout period

## CCCN[C@@H]1CCc2nc(N)sc2C1 [dexpramipexole, (6R)-2-amino-4,5,6,7-tetrahydro-6-(propylamino)benzothiazole]
Patients with ALS [1]; 50 mg/day
  treatment failures (6-point or greater drop in ALSFRS-R total score): 35%
Patients with ALS [1]; 50 mg, 12 weeks
  mean change from baseline to endpoint in ALSFRS-R total score: −5.0
  median change from baseline to endpoint in ALSFRS-R score: −3.0
Patients with ALS [1]; 50 mg, Week 12 of Part 1
  mean ALSFRS-R total score: 32.4
  mean McGill SIS score: 6.3
  mean upright VC: 82.5%
Patients with ALS [1]; 50 mg
  treatment failures (reduction in VC of 20% or greater): 13%
Patients with ALS [1]; 150 mg/day
  treatment failures (6-point or greater drop in ALSFRS-R total score): 15%
Patients with ALS [1]; 150 mg, 12 weeks
  mean change from baseline to endpoint in ALSFRS-R total score: −3.3
  median change from baseline to endpoint in ALSFRS-R score: −2.5
Patients with ALS [1]; 150 mg, Week 12 of Part 1
  mean ALSFRS-R total score: 35.8
  mean upright VC: 82.3%
Patients with ALS [1]; 150 mg
  treatment failures (reduction in VC of 20% or greater): 12%
Patients with ALS [1]; 300 mg/day
  treatment failures (6-point or greater drop in ALSFRS-R total score): 8%
Patients with ALS [1]; 300 mg/day, study endpoint
  mean fine motor domain change of ALSFRS-R (mean±SEM): −0.6±0.24
Patients with ALS [1]; 300 mg, 12 weeks
  mean change from baseline to endpoint in ALSFRS-R total score: −2.2
  median change from baseline to endpoint in ALSFRS-R score: −2.0
  reduction of mean ALSFRS-R decline compared with placebo: 39%
  reduction of median ALSFRS-R decline compared with placebo: 50%
Patients with ALS [1]; 300 mg, Part 1
  slope of ALSFRS-R scores (linear mixed-effects): −0.878
Patients with ALS [1]; 300 mg, Week 12 of Part 1
  mean ALSFRS-R total score: 36.2
  mean McGill SIS score: 7.3
  mean upright VC: 82.1%
  median upright VC: 91.2%
Patients with ALS [1]; 300 mg
  treatment failures (reduction in VC of 20% or greater): 4%
Patients with ALS [1]; daily doses of 30 mg (so in the source)
  reduction in handwriting score (FIG. 4A): almost no reduction
Patients with ALS [2]; 50 mg during Part 1, Baseline (Part 1: Week 12)
  Neutrophil Count, Mean (SD): 4.539 (1.3112) ×10^3/μL
Patients with ALS [2]; 50 mg during Part 1, Part 2: Week 4 (end of placebo washout)
  Neutrophil Count, Mean (SD): 4.470 (1.3436) ×10^3/μL
Patients with ALS [2]; [3]
  ALS-related TEAE: Disease progression: 1 (5%) N (%)
  ALS-related TEAE: Dyspnoea: 1 (5%) N (%)
  ALS-related TEAE: Fall: 2 (9%) N (%)
  ALS-related TEAE: General Disorders and Administration Site Conditions: 2 (9%) N (%)
  ALS-related TEAE: Injury, Poisoning and Procedural Complications: 2 (9%) N (%)
  ALS-related TEAE: Muscle spasms: 1 (5%) N (%)
  ALS-related TEAE: Muscular weakness: 4 (18%) N (%)
  ALS-related TEAE: Musculoskeletal and Connective Tissue Disorders: 4 (18%) N (%)
  ALS-related TEAE: Respiratory, Thoracic and Mediastinal Disorders: 1 (5%) N (%)
  Neutrophil Count, Mean Δ (SD) from baseline to Week 4: −0.022 (0.7157) ×10^3/μL
  Number of TEAEs: 18
  Number of serious TEAEs: 2
  Number of severe TEAEs: 2
  Number of treatment-related TEAEs: 2
  Subjects with a TEAE with action taken of study drug discontinued: 0 N (%)
  Subjects with ≧1 ALS-related TEAE: 7 (32%) N (%)
  TEAE: Anxiety: 1 (5%) N (%)
  TEAE: Back pain: 2 (9%) N (%)
  TEAE: Constipation: 0 N (%)
  TEAE: Cough: 0 N (%)
  TEAE: Diarrhoea: 0 N (%)
  TEAE: Dyspnoea: 1 (5%) N (%)
  TEAE: Fall: 2 (9%) N (%)
  TEAE: Gastrointestinal Disorders: 0 N (%)
  TEAE: General Disorders and Administration Site Conditions: 2 (9%) N (%)
  TEAE: Injury, Poisoning and Procedural Complications: 2 (9%) N (%)
  TEAE: Muscle spasms: 1 (5%) N (%)
  TEAE: Muscular weakness: 4 (18%) N (%)
  TEAE: Musculoskeletal and Connective Tissue Disorders: 6 (27%) N (%)
  TEAE: Nausea: 0 N (%)
  TEAE: Post lumbar puncture syndrome: 0 N (%)
  TEAE: Psychiatric Disorders: 1 (5%) N (%)
  TEAE: Pyrexia: 1 (5%) N (%)
  TEAE: Respiratory, Thoracic and Mediastinal Disorders: 1 (5%) N (%)
  mean change from baseline in ALSFRS-R score over 4 weeks: −0.7
  mean change from baseline in VC over 4 weeks: −2.9%
  serious TEAE: Disease progression: 1 (5%)^a N (%)
  serious TEAE: Dyspnoea: 1 (5%)^a N (%)
  serious TEAE: General Disorders and Administration Site Conditions: 1 (5%) N (%)
  serious TEAE: Renal and Urinary Disorders: 0 N (%)
  serious TEAE: Respiratory, Thoracic and Mediastinal Disorders: 1 (5%) N (%)
  serious TEAE: Urethral obstruction: 0 N (%)
  serious TEAE: Urinary retention: 0 N (%)
  ≧1 TEAE: 9 (41%) N (%)
  ≧1 TEAE with an outcome of death: 2 N (%) and 2 (9%) N (%)
  ≧1 serious TEAE (including death): 2 (9%) N (%)
  ≧1 serious treatment-related TEAE: 0 N (%)
  ≧1 severe TEAE: 2 (9%) N (%)
  ≧1 treatment-related TEAE: 2 (9%) N (%)
Patients with ALS [2]; 150 mg during Part 1, Baseline (Part 1: Week 12)
  Neutrophil Count, Mean (SD): 3.931 (1.4130) ×10^3/μL
Patients with ALS [2]; 150 mg during Part 1, Part 2: Week 4 (end of placebo washout)
  Neutrophil Count, Mean (SD): 4.753 (1.5327) ×10^3/μL
Patients with ALS [2]; [4]
  ALS-related TEAE: Disease progression: 0 N (%)
  ALS-related TEAE: Dyspnoea: 0 N (%)
  ALS-related TEAE: Fall: 3 (12%) N (%)
  ALS-related TEAE: General Disorders and Administration Site Conditions: 0 N (%)
  ALS-related TEAE: Injury, Poisoning and Procedural Complications: 3 (12%) N (%)
  ALS-related TEAE: Muscle spasms: 1 (4%) N (%)
  ALS-related TEAE: Muscular weakness: 1 (4%) N (%)
  ALS-related TEAE: Musculoskeletal and Connective Tissue Disorders: 2 (8%) N (%)
  ALS-related TEAE: Respiratory, Thoracic and Mediastinal Disorders: 1 (4%) N (%)
  Neutrophil Count, Mean Δ (SD) from baseline to Week 4: 0.841 (1.1854) ×10^3/μL
  Number of TEAEs: 29
